For series [1], the system named is nematode egg and larval stages in dung. As to the kind of experiment: Mini dung egg hatch-survival assay. To be noted: treatments applied to fresh dung on days 0 through 7, harvested days 12-16. Here is the method: All the dung samples were then left until day 12 when the first replicates were harvested. The last replicate was sampled on day 16. Hatched larvae were separated from the dung and numerated via microscopic examination. Town supply tap water was used for solution preparation and used as the reference control treatment. Sodium hypochlorite was added to tap-water to form a bleach solution containing 5% w/v NaOCl.

The subject of series [2] is eggs of free-living parasitic nematodes. Kind of series: Egg hatch assay. Here is the method: Approximately 125 eggs were place in 24 well plate wells and treatments applied. After 24 hours, unhatched eggs and larvae were numerated by microscopic examination. Town supply tap water was used for solution preparation and used as the reference control treatment Sodium hypochlorite was added to tap-water to form a bleach solution containing 5% w/v NaOCl […]

Series [3] is classed as physicochemical.
Series [4] relates to Haemonchus controtus L3. Kind of series: Petri-dish laboratory study of efficacy against L3. To be noted: for Measured efficacy: 24 ml solution, live L3 recovered by Baermann funnel, 10 replicates; for effectiveness in killing L3: result in words.
Series [5] relates to Haemonchus contortus L3. Conditions: in vivo.

Regarding `OCl` [Bleach, Sodium hypochlorite], the “impact on nematode development in dung” value in series [1] was “small impact on all stage of the nematode development from the egg through to the L1, 2 and 3 stages”. The “effect on eggs and egg hatching” value in series [2] (after 24 hours, result in words) was “destroyed all the eggs”. Also, the “Average of % hatch” value in series [2] (approximately 125 eggs per well, after 24 hours) was found to be 0.0%. Further, in series [2] (approximately 125 eggs per well, larvae counted after 24 hours), the Average of larvae turned out to be 0.0. In addition, the Average of eggs in series [2] (approximately 125 eggs per well, unhatched eggs counted after 24 hours) is listed as 0.3.

On to `[Ca+2].[OH-].[OH-]` [Ca(OH)2 0.1%, calcium hydroxide], for which the “pH 0” value in series [3] was determined as 12.0. Besides, the Measured efficacy in series [4] (listed as Ca(OH)2 0.100%) is 93%. Also, the “effectiveness in killing L3” value in series [4] is “effective in killing L3”. Also, in series [5], the “impact on L3 numbers in faeces” value is “Neither ammonium nitrate nor calcium hydroxide applied alone or in combination had any impact on L3 numbers in faeces” and the “impact on L3 numbers on pasture” value is “neither ammonium nitrate nor calcium hydroxide applied alone had any impact on L3 numbers on pasture”.

For `[Ca+2].[OH-].[OH-]` [Ca(OH)2 0.05%, calcium hydroxide], the “pH 0” value in series [3] was 11.6. Also, the Measured efficacy in series [4] (listed as Ca(OH)2 0.050%) was found to be 69%.

Consider `[Ca+2].[OH-].[OH-]` [Ca(OH)2 0.013%, calcium hydroxide], for which, in series [3], the “pH 0” value was 11.0. Also, the Measured efficacy in series [4] is listed as 28%.

For `[Ca+2].[OH-].[OH-]` [Ca(OH)2 0.025%, calcium hydroxide], the “pH 0” value in series [3] is given as 11.3. In series [4], the Measured efficacy is given as 43%.

In the case of ammonium nitrate [NH4NO3 1.75%], in series [4], the Measured efficacy is −39%.

For the compound ammonium nitrate [NH4NO3 3.5%], in series [4], the Measured efficacy is given as 12%.

With ammonium nitrate [NH4NO3 7%], the Measured efficacy in series [4] is reported as 72%.

Turning to ammonium nitrate [NH4NO3 13.5%], in series [4], the Measured efficacy is recorded as 97% and the “effectiveness in killing L3” value is “effective in killing L3”.

For the origin of these results see patent publication US10681911B2, “Anthelminthic composition” (AgResearch Limited, priority 2016, dated 2020).
